Experimental data as given in patent publication US20030017462A1, “Control samples for use as standards for evaluating apoptosis in a selected tissue” (priority 2001, published 2003).
Entries after “also recorded” stand apart in the source; their conditions may differ.

Tested on: thymic tissue
Experiment: Thymic apoptosis in microgravity culture (RCCS bioreactor), TUNEL assay
Type: cell-based, Lewis rats
Settings: for Percent Area of Stain: 1 μM dexamethasone in culture media, microgravity bioreactor, 37° C.; for Ratio DEX/CON (Percent Area of Stain): 1 μM dexamethasone vs control media
Protocol: The following media and solutions were prepared:
1. Phosphate buffered saline (PBS) for rinsing tissue.
2. Control media, consisting of RPMi 1640 containing 15% heat-inactivated fetal bovine serum, 100 μg/mL penicillin, 100 μg/mL streptomycin, 100 μg/mL L-glutamine, and 2.5 μg/mL amphotericin B.
3. Experimental media, consisting of control media containing 1 μM dexamethasone.
Two microgravity bioreactors (Synthecon, Inc., Houston Tex.) were utilized; one containing control media and one containing experimental media.
The thymus was removed from two Lewis rats, washed in cold PBS to remove blood, and stripped of excess tissue. Thymus tissue was cut into sections of about 3 mm^3, while in cold media.
The bioreactors were filled with control (CON) or experimental (DEX) media. Approximately 24 thymus pieces were placed in each bioreactor, for incubation at 37° C. at a rotation speed appropriate for the size of tissue piece and sedimentation rate, in order to provide constant free-fall. Tissue pieces were removed from each bioreactor every half hour for the first 3 hours, then every hour to the sixth hour, then at hour 10 and hour 24.
Tissue was fixed in 10% neutral buffered formalin or Histochoice™ (Amresco, Inc., Solon Ohio), processed to paraffin and sectioned for histochemical analysis. Formalin-fixed sections were stained with hematoxylin and eosin. Immunohistochemical staining for Lewis Y expression was performed with Histochoice TM fixed samples on a DAKO autostainer, using a monoclonal mouse anti-human Lewis γ antibody (DAKO, Carpinteria Calif.). A peroxidase labeled streptavidin-biotin detection system (Zymed, So. San Francisco Calif.) and diaminobenzidine (DAB) chromagen were used.
In situ labeling of apoptosis was measured by terminal deoxynucleotidyl transferase mediated dUTP nick end labeling (TUNEL) method with a cell death detection kit (Boehringer Mannheim Gmbh, Mannheim, Germany). Using digital image analysis, immunostained sections were analyzed for intensity stain index (ISI=[ΣP0×I0]/total tissue area in pixels), where P0=number of pixels at each intensity and I0=the intensity units (Doolin et al., J. Surg. Res. 59: 191-197, 1995). TUNEL was quantified as total apoptotic cell number divided by total tissue area.

C[C@@H]1C[C@H]2[C@@H]3CCC4=CC(=O)C=C[C@]4(C)[C@@]3(F)[C@@H](O)C[C@]2(C)[C@@]1(O)C(=O)CO [DEX, dexamethasone]
Percent Area of Stain (time 0 hours): 6.04%
Percent Area of Stain (time 3 hours): 21.68%
Percent Area of Stain (time 6 hours): 33.29%
Percent Area of Stain (time 10 hours): 43.82%
Percent Area of Stain (time 24 hours): 43.30%
Effect on rate of apoptosis of thymic tissue (1 μM dexamethasone in culture medium, RCCS bioreactor, compared with control culture): increases the rate of apoptosis; also recorded: increased the rate of apoptosis up to 10 hours post-initiation
Ratio DEX/CON (Percent Area of Stain) (time 0 hours): 1.00
Ratio DEX/CON (Percent Area of Stain) (time 3 hours): 1.46
Ratio DEX/CON (Percent Area of Stain) (time 6 hours): 1.58
Ratio DEX/CON (Percent Area of Stain) (time 10 hours): 1.37
Ratio DEX/CON (Percent Area of Stain) (time 24 hours): 0.87
Time to maximum level of apoptosis, as measured by TUNEL (thymic tissue in RCCS bioreactor in the presence of dexamethasone (24 hours without)): 10 h
